From ChEMBL document CHEMBL1201862, “PubChem BioAssay data set” (2004)
Values belong to the compound of their own block, whether it stands above or below them. Activity calls are given as the source filed them.

Legend:
[1] = biological target: T1, Nucleotide-binding oligomerization domain-containing protein 1 (Homo sapiens, UniProt Q9Y239); test: SAR analysis of compounds that inhibit NOD1 - Set 3. [Related pubchem assays (depositor defined):AID1566, AID1575, AID1578, AID1849, AID1852, AID2333, AID2335, AID2466]; assay type: functional
T1 sequence (Q9Y239 whole entry): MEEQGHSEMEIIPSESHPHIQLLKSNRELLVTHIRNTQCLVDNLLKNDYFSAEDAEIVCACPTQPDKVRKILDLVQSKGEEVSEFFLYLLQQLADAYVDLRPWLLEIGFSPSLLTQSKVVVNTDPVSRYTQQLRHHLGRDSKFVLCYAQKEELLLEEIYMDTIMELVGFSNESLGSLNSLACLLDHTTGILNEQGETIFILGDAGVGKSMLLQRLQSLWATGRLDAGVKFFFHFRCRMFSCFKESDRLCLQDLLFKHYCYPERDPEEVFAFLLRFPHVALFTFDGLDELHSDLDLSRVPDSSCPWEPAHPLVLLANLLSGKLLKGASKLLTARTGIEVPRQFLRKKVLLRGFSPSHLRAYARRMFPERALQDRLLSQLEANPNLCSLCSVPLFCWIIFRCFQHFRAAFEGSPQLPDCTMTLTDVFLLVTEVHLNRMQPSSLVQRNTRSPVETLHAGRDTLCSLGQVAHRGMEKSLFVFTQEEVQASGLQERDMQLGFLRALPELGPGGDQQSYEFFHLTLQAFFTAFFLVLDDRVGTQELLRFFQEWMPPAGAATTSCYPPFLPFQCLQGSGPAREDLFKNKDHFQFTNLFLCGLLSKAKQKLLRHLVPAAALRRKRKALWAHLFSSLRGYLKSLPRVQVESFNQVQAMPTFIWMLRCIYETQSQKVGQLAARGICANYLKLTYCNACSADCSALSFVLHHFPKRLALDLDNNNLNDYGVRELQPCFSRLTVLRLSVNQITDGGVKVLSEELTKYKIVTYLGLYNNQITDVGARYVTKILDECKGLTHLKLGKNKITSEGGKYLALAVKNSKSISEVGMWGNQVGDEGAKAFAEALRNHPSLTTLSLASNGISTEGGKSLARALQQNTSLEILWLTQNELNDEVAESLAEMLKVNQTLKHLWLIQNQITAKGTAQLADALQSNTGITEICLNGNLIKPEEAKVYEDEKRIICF

Tumor necrosis factor = Tumor necrosis factor (Homo sapiens, UniProt P01375); test: TNFa-triggered NF-kB activation inhibitors, SAR follow-up, cell-based, set 3 (AID 2801); assay type: functional
Tumor necrosis factor, sequence (P01375 whole entry): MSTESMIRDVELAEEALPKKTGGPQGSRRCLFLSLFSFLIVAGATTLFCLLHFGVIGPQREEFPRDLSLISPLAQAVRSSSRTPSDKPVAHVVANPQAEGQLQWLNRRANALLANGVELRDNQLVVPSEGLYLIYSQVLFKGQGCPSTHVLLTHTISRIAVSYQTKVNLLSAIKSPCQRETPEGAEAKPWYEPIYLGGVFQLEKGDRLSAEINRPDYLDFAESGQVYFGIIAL

HEK293 = test: SAR analysis of compounds that are cytotoxic to HEK293 - Set 3. [Related pubchem assays (depositor defined):AID1575, AID1578, AID1848, AID1849, AID2001, AID2333, AID2334, AID2335, AID2337, AID2469]; assay type: functional, cell-based; settings: Homo sapiens
[2] = biological target: Nucleotide-binding oligomerization domain-containing protein 2 (Homo sapiens, UniProt Q9HC29); test: NOD2 signaling inhibitors, analog potency, SAR follow-up, cell-based, set 3 (AID 2799); assay type: functional
Nucleotide-binding oligomerization domain-containing protein 2, sequence (Q9HC29 whole entry, the tested form may be a part): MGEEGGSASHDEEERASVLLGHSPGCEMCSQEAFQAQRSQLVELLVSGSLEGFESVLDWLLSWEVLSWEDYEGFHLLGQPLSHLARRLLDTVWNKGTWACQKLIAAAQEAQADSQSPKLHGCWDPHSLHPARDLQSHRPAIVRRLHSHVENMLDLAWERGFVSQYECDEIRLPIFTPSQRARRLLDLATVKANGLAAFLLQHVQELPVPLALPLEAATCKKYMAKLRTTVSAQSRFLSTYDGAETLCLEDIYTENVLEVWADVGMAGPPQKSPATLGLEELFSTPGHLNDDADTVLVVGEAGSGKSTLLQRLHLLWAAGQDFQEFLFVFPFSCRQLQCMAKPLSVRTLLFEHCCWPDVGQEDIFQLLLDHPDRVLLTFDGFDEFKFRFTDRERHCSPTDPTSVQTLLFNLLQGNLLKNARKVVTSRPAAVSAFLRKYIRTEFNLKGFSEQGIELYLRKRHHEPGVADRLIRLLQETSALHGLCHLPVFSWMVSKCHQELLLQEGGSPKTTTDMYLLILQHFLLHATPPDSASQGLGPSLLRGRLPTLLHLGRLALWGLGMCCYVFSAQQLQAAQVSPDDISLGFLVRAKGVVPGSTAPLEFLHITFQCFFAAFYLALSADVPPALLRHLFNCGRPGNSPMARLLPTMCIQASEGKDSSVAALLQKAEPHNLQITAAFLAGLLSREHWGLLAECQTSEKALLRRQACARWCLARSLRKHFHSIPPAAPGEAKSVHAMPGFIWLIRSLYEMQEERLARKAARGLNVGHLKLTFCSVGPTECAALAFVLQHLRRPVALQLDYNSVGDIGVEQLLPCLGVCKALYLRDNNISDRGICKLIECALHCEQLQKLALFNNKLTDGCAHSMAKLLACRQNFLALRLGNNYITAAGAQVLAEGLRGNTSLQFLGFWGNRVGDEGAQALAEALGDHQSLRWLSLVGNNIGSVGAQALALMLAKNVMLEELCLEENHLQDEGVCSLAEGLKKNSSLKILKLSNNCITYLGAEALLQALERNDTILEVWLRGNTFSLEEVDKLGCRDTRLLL

[3] = biological target: T2, RNA-binding protein pos-1 (Caenorhabditis elegans, UniProt G5EF15); test: inhibitors of POS-1/mex-3 RNA binding, dose response, biochemical, fluorescence polarization (AID 1964);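 note: purified POS-1 fused to maltose binding protein made in E. coli; potency of compounds blocking POS-1 binding to fluorescent RNA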
T2 sequence (G5EF15 whole entry): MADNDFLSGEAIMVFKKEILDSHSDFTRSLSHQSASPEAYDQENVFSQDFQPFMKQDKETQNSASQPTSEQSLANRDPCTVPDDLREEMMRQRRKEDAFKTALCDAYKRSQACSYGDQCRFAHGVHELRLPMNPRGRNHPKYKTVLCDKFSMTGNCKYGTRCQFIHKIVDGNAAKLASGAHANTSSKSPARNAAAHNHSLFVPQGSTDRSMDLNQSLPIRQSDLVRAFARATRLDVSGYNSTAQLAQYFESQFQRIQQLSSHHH

[4] = biological target: T3, Zinc finger protein mex-5 (Caenorhabditis elegans, UniProt Q9XUB2); test: MEX-5/TCR-2 RNA interaction inhibitors, dose response, biochemical, C. elegans, fluorescence polarization (AID 1960)
T3 sequence (Q9XUB2 whole entry): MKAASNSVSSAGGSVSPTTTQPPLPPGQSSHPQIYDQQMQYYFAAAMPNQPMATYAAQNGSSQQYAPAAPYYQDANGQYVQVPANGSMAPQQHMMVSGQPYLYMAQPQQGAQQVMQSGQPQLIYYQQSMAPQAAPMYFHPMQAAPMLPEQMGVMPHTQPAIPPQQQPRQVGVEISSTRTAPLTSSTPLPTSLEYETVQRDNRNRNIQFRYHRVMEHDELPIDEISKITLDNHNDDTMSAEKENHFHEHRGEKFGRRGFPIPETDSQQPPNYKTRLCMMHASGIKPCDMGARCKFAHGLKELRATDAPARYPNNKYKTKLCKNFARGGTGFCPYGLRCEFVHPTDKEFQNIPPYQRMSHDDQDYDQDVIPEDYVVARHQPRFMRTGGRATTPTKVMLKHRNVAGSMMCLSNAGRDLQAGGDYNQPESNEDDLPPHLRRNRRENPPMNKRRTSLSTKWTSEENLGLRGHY

[5] = biological target: Intestinal-type alkaline phosphatase (Homo sapiens, UniProt P09923); test: activation of human intestinal alkaline phosphatase – biochemical, dose response (AID 488873); assay type: functional
Intestinal-type alkaline phosphatase (Homo sapiens, UniProt P09923), sequence (P09923 whole entry): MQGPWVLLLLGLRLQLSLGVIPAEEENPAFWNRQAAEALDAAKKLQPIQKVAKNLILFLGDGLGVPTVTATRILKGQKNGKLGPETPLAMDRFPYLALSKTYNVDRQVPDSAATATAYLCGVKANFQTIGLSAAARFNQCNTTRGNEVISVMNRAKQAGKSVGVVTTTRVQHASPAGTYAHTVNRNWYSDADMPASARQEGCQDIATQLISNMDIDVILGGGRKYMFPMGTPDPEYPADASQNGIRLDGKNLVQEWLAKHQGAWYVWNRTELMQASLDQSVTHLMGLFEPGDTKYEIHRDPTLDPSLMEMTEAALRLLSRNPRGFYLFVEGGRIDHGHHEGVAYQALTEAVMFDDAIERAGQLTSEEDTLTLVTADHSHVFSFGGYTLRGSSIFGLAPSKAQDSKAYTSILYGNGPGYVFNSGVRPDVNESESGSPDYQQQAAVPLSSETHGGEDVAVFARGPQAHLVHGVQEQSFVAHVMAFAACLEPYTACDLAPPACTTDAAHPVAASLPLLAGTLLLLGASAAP

[6] = biological target: T4, Heat shock factor protein 1 (Mus musculus, UniProt P38532); test: HSF1 potentiators in luciferase reporter cells, confirmation, cell-based, NIH3T3, luminescence, dose retest (AID 435004); assay type: functional;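 note: stress induced by proteasome inhibitor MG132 added 30 min after compound; luciferase reporter driven by HSF1 response element in NIH3T3 cells; actives raise luminescence as potentiators of the MG132 stress response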
T4 sequence (P38532 whole entry): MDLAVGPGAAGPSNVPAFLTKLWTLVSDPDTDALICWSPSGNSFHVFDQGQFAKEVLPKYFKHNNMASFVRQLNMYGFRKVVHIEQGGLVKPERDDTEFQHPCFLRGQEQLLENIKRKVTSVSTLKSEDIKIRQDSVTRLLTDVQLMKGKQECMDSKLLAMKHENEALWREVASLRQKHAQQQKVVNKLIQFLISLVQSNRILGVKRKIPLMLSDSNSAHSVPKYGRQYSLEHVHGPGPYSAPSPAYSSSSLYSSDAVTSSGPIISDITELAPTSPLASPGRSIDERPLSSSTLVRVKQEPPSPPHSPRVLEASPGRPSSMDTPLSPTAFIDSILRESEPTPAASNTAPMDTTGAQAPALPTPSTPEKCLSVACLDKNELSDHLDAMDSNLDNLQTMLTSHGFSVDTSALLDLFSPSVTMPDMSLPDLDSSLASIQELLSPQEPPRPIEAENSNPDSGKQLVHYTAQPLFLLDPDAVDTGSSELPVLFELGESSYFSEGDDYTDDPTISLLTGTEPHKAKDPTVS

[7] = biological target: Intestinal-type alkaline phosphatase (Mus musculus, UniProt P24822); test: mouse intestinal alkaline phosphatase activators, dose response, biochemical, luminescence, uHTS hits (AID 488783); assay type: functional
Intestinal-type alkaline phosphatase (Mus musculus, UniProt P24822), sequence (P24822 whole entry): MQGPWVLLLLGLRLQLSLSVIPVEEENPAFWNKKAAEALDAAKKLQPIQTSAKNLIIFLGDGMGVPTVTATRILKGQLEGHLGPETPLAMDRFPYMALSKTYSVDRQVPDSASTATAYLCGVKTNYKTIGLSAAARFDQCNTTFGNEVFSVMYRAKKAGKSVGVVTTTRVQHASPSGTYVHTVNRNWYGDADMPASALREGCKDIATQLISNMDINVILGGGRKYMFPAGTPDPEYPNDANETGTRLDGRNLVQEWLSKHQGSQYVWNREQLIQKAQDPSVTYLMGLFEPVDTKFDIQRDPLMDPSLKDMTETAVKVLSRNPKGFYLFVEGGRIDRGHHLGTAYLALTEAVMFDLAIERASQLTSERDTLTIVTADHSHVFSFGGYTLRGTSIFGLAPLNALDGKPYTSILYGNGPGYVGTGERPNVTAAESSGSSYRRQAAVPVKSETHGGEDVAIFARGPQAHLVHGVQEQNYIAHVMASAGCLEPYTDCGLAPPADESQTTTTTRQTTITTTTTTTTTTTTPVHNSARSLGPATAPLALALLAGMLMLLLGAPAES

[8] = biological target: T5, Alkaline phosphatase, tissue-nonspecific isozyme (Homo sapiens, UniProt P05186); test: TNAP enzyme activators, dose response, selectivity assay for mouse IAP activator project, biochemical, TNAP isozyme, mouse IAP uHTS hits (AID 488880); assay type: functional
T5 sequence (P05186 whole entry): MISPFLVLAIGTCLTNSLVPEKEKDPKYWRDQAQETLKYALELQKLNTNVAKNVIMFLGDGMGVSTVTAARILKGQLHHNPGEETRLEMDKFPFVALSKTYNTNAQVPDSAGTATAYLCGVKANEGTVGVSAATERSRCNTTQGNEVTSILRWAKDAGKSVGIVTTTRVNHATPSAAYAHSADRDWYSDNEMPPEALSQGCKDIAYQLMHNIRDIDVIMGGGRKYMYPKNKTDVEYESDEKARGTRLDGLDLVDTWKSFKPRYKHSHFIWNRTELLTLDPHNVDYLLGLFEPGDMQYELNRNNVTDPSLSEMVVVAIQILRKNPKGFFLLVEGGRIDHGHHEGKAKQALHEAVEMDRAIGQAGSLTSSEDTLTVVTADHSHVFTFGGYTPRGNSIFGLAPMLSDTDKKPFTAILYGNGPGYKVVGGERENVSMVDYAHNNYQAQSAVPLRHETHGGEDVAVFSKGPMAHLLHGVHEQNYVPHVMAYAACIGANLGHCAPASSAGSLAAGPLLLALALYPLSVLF

[9] = biological target: T6, Rac GTPase-activating protein 1 (Homo sapiens, UniProt Q9H0H5); test: MgcRacGAP GTPase-activating activity inhibitors, confirmation, biochemical, ADP Hunter fluorescence, primary and confirmatory (AID 624330); assay type: functional
T6 sequence (Q9H0H5 whole entry): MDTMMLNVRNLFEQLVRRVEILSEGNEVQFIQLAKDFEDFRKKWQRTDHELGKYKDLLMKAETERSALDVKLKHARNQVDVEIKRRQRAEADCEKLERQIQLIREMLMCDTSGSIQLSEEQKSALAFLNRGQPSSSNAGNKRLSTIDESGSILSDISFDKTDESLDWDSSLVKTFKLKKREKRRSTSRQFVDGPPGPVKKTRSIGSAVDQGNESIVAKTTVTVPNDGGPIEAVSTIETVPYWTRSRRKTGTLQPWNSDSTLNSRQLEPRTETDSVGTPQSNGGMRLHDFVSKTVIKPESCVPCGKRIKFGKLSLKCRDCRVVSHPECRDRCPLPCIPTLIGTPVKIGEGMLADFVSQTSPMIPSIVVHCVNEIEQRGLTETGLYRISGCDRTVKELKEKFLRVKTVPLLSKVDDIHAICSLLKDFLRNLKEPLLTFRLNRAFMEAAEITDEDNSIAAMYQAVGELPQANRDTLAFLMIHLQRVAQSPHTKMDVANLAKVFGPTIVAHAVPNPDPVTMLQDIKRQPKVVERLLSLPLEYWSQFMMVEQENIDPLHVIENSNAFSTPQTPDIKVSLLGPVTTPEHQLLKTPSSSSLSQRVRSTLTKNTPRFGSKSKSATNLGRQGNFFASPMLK

[10] = biological target: T7, G-protein coupled receptor 55 (Homo sapiens, UniProt Q9Y2T6); test: GPR55 antagonists blocking LPI-driven arrestin recruitment, primary screen, imaging, U2OS, beta-arrestin-GFP, LPI agonist (AID 2013); assay type: functional;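 note: antagonist potency measured as reduced agonist-driven arrestin aggregation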
T7 sequence (Q9Y2T6 whole entry): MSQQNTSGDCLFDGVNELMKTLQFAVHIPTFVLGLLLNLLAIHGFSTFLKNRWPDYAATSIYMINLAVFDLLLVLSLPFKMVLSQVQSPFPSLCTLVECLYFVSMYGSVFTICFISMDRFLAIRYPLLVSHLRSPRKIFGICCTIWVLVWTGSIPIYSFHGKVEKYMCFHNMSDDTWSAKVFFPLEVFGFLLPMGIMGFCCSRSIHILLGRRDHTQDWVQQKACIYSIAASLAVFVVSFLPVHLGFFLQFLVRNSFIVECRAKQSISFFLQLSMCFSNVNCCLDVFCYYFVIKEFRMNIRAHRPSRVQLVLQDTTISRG

Cannabinoid receptor 1 [11] = biological target: T8, Cannabinoid receptor 1 (Homo sapiens, UniProt P21554); test: SAR analysis of antagonists of the Cannabinoid Receptor 1 using an Image-Based Assay - Set 2. [Related pubchem assays (depositor defined):AID2013, AID2026]; assay type: functional
T8 sequence (P21554 whole entry): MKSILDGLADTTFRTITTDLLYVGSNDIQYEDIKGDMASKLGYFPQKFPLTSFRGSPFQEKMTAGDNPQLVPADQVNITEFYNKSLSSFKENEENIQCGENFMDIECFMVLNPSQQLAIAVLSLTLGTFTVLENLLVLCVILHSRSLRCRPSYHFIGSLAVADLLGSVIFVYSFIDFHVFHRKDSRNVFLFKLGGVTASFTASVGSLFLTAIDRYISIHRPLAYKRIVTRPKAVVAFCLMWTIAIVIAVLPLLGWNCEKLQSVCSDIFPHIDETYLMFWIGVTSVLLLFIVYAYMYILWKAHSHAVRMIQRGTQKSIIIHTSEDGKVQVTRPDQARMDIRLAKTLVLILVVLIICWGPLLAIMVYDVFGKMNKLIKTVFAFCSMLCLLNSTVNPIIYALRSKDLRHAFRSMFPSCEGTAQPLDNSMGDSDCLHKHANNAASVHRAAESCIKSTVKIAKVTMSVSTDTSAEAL

[12] = biological target: T9, G-protein coupled receptor 35 (Homo sapiens, UniProt Q9HC97); test: SAR analysis of Agonists of the GPR35 Receptor using an Image-Based Assay - Set 2. [Related pubchem assays (depositor defined):AID2013, AID2026]; assay type: functional
T9 sequence (Q9HC97 whole entry): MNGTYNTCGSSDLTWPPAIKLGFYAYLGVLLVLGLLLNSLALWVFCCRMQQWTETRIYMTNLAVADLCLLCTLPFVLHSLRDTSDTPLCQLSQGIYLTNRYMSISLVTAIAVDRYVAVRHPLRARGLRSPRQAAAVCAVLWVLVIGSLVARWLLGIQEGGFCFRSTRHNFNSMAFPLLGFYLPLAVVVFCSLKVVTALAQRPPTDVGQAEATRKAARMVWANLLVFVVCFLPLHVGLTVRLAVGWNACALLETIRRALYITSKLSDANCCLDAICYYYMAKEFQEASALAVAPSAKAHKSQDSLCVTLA

Cannabinoid receptor 2 [13] = biological target: T10, Cannabinoid receptor 2 (Homo sapiens, UniProt P34972); test: SAR analysis of antagonists of the Cannabinoid Receptor 2 using an Image-Based Assay. [Related pubchem assays (depositor defined):AID2013, AID2026]; assay type: functional
T10 sequence (P34972 whole entry): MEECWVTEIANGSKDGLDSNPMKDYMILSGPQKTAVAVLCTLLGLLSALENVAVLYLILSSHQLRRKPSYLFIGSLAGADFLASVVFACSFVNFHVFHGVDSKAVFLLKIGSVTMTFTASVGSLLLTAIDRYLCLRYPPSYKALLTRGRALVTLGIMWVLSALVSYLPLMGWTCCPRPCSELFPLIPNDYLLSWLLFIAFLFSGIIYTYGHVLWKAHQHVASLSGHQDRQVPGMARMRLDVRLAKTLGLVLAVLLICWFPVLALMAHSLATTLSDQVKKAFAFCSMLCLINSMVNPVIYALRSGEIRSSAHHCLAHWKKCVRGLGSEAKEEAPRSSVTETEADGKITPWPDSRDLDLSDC

Cannabinoid receptor 1 [14] = biological target: T8, Cannabinoid receptor 1; test: SAR analysis of agonists of the Cannabinoid Receptor 1 using an Image-Based Assay - Set 2. [Related pubchem assays (depositor defined):AID2013, AID2026]; assay type: functional
[15] = biological target: T9, G-protein coupled receptor 35; test: SAR analysis of Antagonists of the GPR35 Receptor using an Image-Based Assay - Set 3. [Related pubchem assays (depositor defined):AID2013, AID2026]; assay type: functional
[16] = biological target: T7, G-protein coupled receptor 55; test: GPR55 antagonist potency of analogs, SAR follow-up, imaging, U2OS, beta-arrestin-GFP, LPI agonist, set 2 (AID 2820); assay type: functional
Cannabinoid receptor 2 [17] = biological target: T10, Cannabinoid receptor 2; test: SAR analysis of agonists of the Cannabinoid Receptor 2 using an Image-Based Assay. [Related pubchem assays (depositor defined):AID2013, AID2026]; assay type: functional

Compound: COc1ccc(-c2cc(N)n(S(=O)(=O)c3cccc([N+](=O)[O-])c3)n2)cc1OC
- IC50 [1]: > 20 µM (inactive)
- IC50 (Tumor necrosis factor): > 20 µM (inactive)
- IC50 (HEK293): > 20 µM (inactive)
- IC50 [2]: > 20 µM (inactive)

- EC50 [3]: 99.3 µM (active)
- EC50 [4]: 125 µM (active)
- EC50 [5]: 66.2 µM (active)
- EC50 [6]: > 260 µM (inactive)
- EC50 [7]: 58.7 µM (active)
- EC50 [8]: 56.1 µM (active)
- IC50 [9]: 21.4 µM (active)
Compound: Cc1cc(O)nc(N/N=C/c2ccc(O)c(O)c2)n1

- IC50 [10]: 1.8 µM (active)
- IC50 (Cannabinoid receptor 1 [11]): 8.82 µM (active)
- EC50 [12]: > 32 µM (inactive)
- IC50 (Cannabinoid receptor 2 [13]): > 32 µM (inactive)
- EC50 (Cannabinoid receptor 1 [14]): > 32 µM (inactive)
- IC50 [15]: > 32 µM (inactive)
- IC50 [16]: 1.06 µM (active)
- EC50 (Cannabinoid receptor 2 [17]): 30.2 µM (inactive)
Compound: COc1ccc(-c2c(-c3ccc(O)cc3O)n[nH]c2C(F)(F)F)cc1
